“Also recorded” adds a separate entry of the source.
Tested on: dermal papilla cell (DP)
Test: 3D spheroid (hanging drop) culture model of dermal papilla cells
Format: cell-based
Settings: 3D spheroid culture
Experimental: FIG. 1: 3D hanging drop culture of DPCs. […] After spheroid formation is complete, the samples are transferred into a 96 well plate for further cultivation and drug exposure. […] (A) Representative images of spheroids stained for newly synthesized cells were taken after drug exposure for 12 hours (left column) and 24 hours (right column) respectively. Scale bars: 200 μm.

Cc1c(O)c(=O)ccn1C [Deferiprone, 3-hydroxy-1,2-dimethylpyridin-4(1H)-one]
DP cell migration (radius of migration around the spheroids) (after 24 hours): without impeding; also recorded: unchanged
DP cell proliferation (synthesis of new daughter cells) (drug exposure for 12 hours and 24 hours): significantly increases; also recorded: significantly enhanced
